Results published in US9795672B2, “Treatment with anti-VEGF antibodies” (Genentech, Inc., priority 2003, dated 2017).
Marks after values point to notes of the source that are not given here.

Assays:
[1] = test system: metastatic colorectal cancer; assay: Phase II randomized trial, bevacizumab added to bolus 5-FU/LV, first-line, non-optimal candidates for irinotecan: efficacy and quality of life; type: in vivo, human
Text: Patients with histologically confirmed, previously untreated, measurable metastatic colorectal cancer were eligible if, in the judgment of the investigator, they were not optimal candidates for first-line irinotecan-containing therapy and had at least one of the following characteristics: age above 65 years, ECOG PS of 1 or 2, serum albumin equal or less than 3.5 g/dL, or prior radiotherapy to abdomen or pelvis. […] All patients provided written informed consent for their participation.
A dynamic randomization algorithm was utilized to achieve balance overall and within each of the following categories: study center, baseline ECOG performance status (0 vs. ≧1), site of primary disease (colon vs. rectum), and number of metastatic sites (1 vs. >1). The 5-FU/LV treatment, comprising LV 500 mg/m^2 over 2 hours and 5-FU 500 mg/m^2 as a bolus midway through the LV infusion (Roswell Park regimen; Petrelli et al. (1989) J. Clin. Oncol. 7:1419-1426), was administered weekly for the first 6 weeks of each 8-week cycle. Chemotherapy was continued until study completion (96 weeks) or disease progression. […] At the time of disease progression, patients were unblinded to their treatment assignment and could receive any second-line treatment at the discretion of the investigator. […] After completing the study, patients were followed for any subsequent treatment and survival every 4 months until death, loss to follow-up, or termination of the study.
Patients underwent an assessment of tumor status at baseline and at completion of every 8-week cycle using appropriate radiographic techniques, typically spiral CT scanning. Tumor response, or progression, was determined by both the investigator and an independent radiology facility (IRF) utilizing the Response Evaluation Criteria in Solid Tumors. Therasse et al. (2000). The IRF assessment was performed without knowledge of the treatment assignment or investigator assessment. In addition, patients completed the Functional Assessment of Cancer Therapy—Colorectal (FACT-C), Version 4, a validated instrument for assessing quality of life (QOL) in colorectal cancer patients, at baseline and prior to each treatment cycle until disease progression. Ward et al. (1999) Qual. Life Res. 8:181-195.
The primary outcome measure was duration of overall survival. Secondary outcome measures included progression-free survival, objective response rate (complete and partial), response duration, and change in the FACT-C QOL score. Survival duration was defined as the time from randomization to death. For patients alive at the time of analysis, duration of survival was censored at the date of last contact. Progression-free survival was defined as the time from randomization to the earlier of disease progression or death on study, defined as death from any cause within 30 days of the last dose of study drug or chemotherapy. For patients alive without disease progression at the time of analysis, progression-free survival was censored at their last tumor assessment, or day 1 (the first day of study treatment) if no postbaseline assessment was performed. In the analysis of objective response, patients without tumor assessments were categorized as nonresponders. Disease progression and response analyses were based on the IRF assessments. Change in quality of life was analyzed as time to deterioration in QOL (TDQ), defined as the length of time from randomization to a the earliest of a ≧3-point decrease from baseline in colon-cancer specific FACT-C subscale score (CCS), disease progression, or death on study. TDQ was also determined for the TOI-C (sum of CCS, physical and functional well-being) and total FACT-C for changes from baseline of 7 and 9 points, respectively.
A two-tailed, log-rank test at the 0.05 level of significance with 80% power and two interim analyses were assumed in the calculations. Interim analyses were conducted by an unblinded, independent Data Monitoring Committee (DMC).

[2] = test system: metastatic colorectal cancer; assay: Phase II randomized trial, bevacizumab added to bolus 5-FU/LV: safety; type: in vivo
Protocol: Safety was assessed from reports of adverse events, laboratory test results, and vital sign measurements. Adverse events and abnormal laboratory results were categorized using the National Cancer Institute Common Toxicity Criteria (NCI-CTC), Version 2.
A two-tailed, log-rank test at the 0.05 level of significance with 80% power and two interim analyses were assumed in the calculations. Interim analyses were conducted by an unblinded, independent Data Monitoring Committee (DMC). A safety interim analysis was conducted after 44 deaths and a second safety and efficacy interim analysis was conducted after 89 deaths. The interim efficacy analysis was governed by a formal group sequential stopping rule based on an O'Brien-Fleming spending function. Kaplan-Meier methodology was applied to estimate the median survival, progression free survival, and duration of response time for each treatment group. […] A two-sided stratified log rank test was used to compare the two groups. Stratified analyses included baseline ECOG performance status, site of primary disease, and the number of metastatic sites. Objective response rates were compared by the Chi-squared test. As exploratory analyses, the Cox proportional hazards model was used to estimate the effect of risk factors on modifications of treatment effect for duration of survival and progression-free survival. Efficacy analyses were performed on the intent-to-treat population, defined as all randomized patients. Safety analyses included all patients who received at least one dose of study drug.

[3] = test system: CRC; details: retrospective subset analysis; cited from earlier work
[4] = test system: metastatic colorectal cancer; details: patients who progressed following 5-FU therapy; cited from earlier work
[5] = test system: metastatic colorectal cancer; assay: Phase III randomized trial, bevacizumab added to bolus IFL, first-line: efficacy; type: in vivo, human; details: for Overall response rate: complete and partial responses, RECIST; for Median duration of response: in vivo; for Progression-free survival: median; for Median survival: overall survival, primary end point, bevacizumab 5 mg/kg every 2 wk or placebo with IFL
Text: The trial enrolled over 900 patients with histologically confirmed, previously untreated, bi-dimensionally measurable metastatic colorectal cancer.
Eligible patients had histologically confirmed metastatic colorectal carcinoma, with bidimensionally measurable disease. Other inclusion criteria included an age of at least 18 years, an Eastern Cooperative Oncology Group (ECOG) performance status of 0 or 1 (Oken et al. (1982) Am. J. Clin. Oncol. 5:649-55), a life expectancy of more than three months, and written informed consent. Adequate hematologic, hepatic, and renal function (including urinary excretion of no more than 500 mg of protein per day) was also required.
Exclusion criteria included prior chemotherapy or biologic therapy for metastatic disease (adjuvant or radiosensitizing use of fluoropyrimidines with or without leucovorin or levamisole more than 12 months before study entry was permitted), receipt of radiotherapy within 14 days before the initiation of study treatment, major surgery within 28 days before the initiation of study treatment, clinically significant cardiovascular disease, clinically detectable ascites, pregnancy or lactation, regular use of aspirin (more than 325 mg per day) or other nonsteroidal […] agents, preexisting bleeding diatheses or coagulopathy or the need for full-dose anticoagulation, and known central nervous system metastases.
Eligible patients were assigned to treatment with the use of a dynamic randomization algorithm that was designed to achieve overall balance between groups; randomization was stratified according to study center, baseline ECOG performance status (0 vs. 1), site of primary disease (colon vs. rectum), and number of metastatic sites (one vs. more than one).
Tumor responses and progression were determined with the use of the Response Evaluation Criteria in Solid Tumors. Therasse et al. (2000) J. Natl. Cancer Inst. 92:205-16. […] No crossovers were allowed in the group given IFL plus placebo.
Bevacizumab (or placebo) was administered concomitantly with chemotherapy. […] Standard intracycle and intercycle dose modifications of irinotecan and fluorouracil (according to the package insert)’ were permitted in patients with treatment-related adverse events. The doses of leucovorin and bevacizumab were not altered.
After the baseline evaluation, tumor status was assessed every 6 weeks for the first 24 weeks of the study and then every 12 weeks for the remainder of therapy. All complete and partial responses required confirmation at least four weeks after they were first noted.
The primary outcome measure was the duration of overall survival; survival was measured without regard to subsequent treatments. There was no crossover between groups, however. Survival analysis techniques such as the Kaplan-Meier method, log-rank test, and Cox proportional hazards model were used. Secondary outcome measures were progression-free survival, objective response rates (complete and partial responses), the duration of responses, and the quality of life.
For patients who were alive at the time of analysis, data on survival were censored at the time of the last contact. […] For patients without disease progression at the time of the final analysis, data on progression-free survival were censored at the last assessment of tumor status or on day 0 if no further assessment was performed after baseline. Patients without adequate follow-up data were categorized as having no response.
All calculations were performed with the log-rank test and involved two-sided P values, with an alpha value of 0.05, a statistical power of 80 percent, and one interim analysis of efficacy.
(§1) Efficacy analyses were performed according to the intention-to-treat principle. Safety analyses included all patients who received at least one dose of study medication.

[6] = test system: metastatic colorectal cancer; assay: Phase III randomized trial, bevacizumab added to bolus IFL: safety (adverse events, NCI Common Toxicity Criteria v2); type: in vivo
Protocol: Safety was assessed on the basis of reports of adverse events, laboratory-test results, and vital sign measurements. Adverse events were categorized according to the Common Toxicity Criteria of the National Cancer Institute, version 2, in which a grade of 1 indicates mild adverse events, a grade of 2 moderate adverse events, a grade of 3 […] adverse events, and a grade of 4 life-threatening adverse events.
as §1

[7] = addition of bevacizumab compared with 5-FU/LV alone

5-FU/LV/Bevacizumab: 5-fluorouracil and leucovorin (Roswell Park regimen) given with bevacizumab 5 mg/kg every 2 weeks
Median time to deterioration in QOL (TDQ), CCS score ([1]; FACT-C colon-cancer specific subscale): 3.1 months
Overall response rate ([1]; IRF assessment): 26.0%
Duration of response ([1]; median): 9.2 months
Progression-free survival ([1]; median, IRF assessment): 9.2 months
Median survival ([1]; overall survival, primary endpoint, intent-to-treat, bevacizumab 5 mg/kg every 2 weeks or placebo with 5-FU/LV (Roswell Park)): 16.6 months
Complete response ([1]; part of overall response rate): 0%
Partial response ([1]; part of overall response rate): 26.0%
Median TDQ, TOI-C ([1]; secondary TDQ measure): 3.2 months
Median TDQ, total FACT-C ([1]; secondary TDQ measure): 3.6 months
60-day all-cause mortality ([2]; in vivo): 5.0%
Arterial thrombotic events, number of patients ([2]; in vivo): 10 patients
Bowel perforation event, number of patients ([2]; in vivo): Two
Incidence of arterial thrombotic events ([2]; in vivo): 10%
Proteinuria of any grade ([2]; in vivo): 38%
Total grade 3 and 4 toxicities ([2]; safety population): 87%
Median survival, subset aged ≧65 years [3]: 17.7 months
Median survival, subset with baseline PS 1 or 2 [3]: 15.2 months
Median survival, subset with serum albumin<3.5 [3]: 14.1 months

CCc1c2c(nc3ccc(OC(=O)N4CCC(N5CCCCC5)CC4)cc13)-c1cc3c(c(=O)n1C2)COC(=O)[C@]3(O)CC [irinotecan]
Prolongation of survival vs best supportive care [4]: 2.8 month
Prolongation of survival vs infusional 5-FU [4]: 2.2 month

IFL plus Bevacizumab: regimen of irinotecan, fluorouracil and leucovorin (IFL) given with bevacizumab 5 mg/kg every 2 wk
Absolute improvement in the response rate ([5]; IFL plus bevacizumab vs IFL alone): 10%
Reduction in the risk of death ([5]; bevacizumab group vs IFL plus placebo): 34%
Overall response rate [5]: 44.8%
Median duration of response [5]: 10.4 mo
One-year survival rate ([5]; intention-to-treat): 74.3%
Progression-free survival ([5]; intention-to-treat): 10.6 mo
Median survival ([5]; intention-to-treat): 20.3 mo
Complete response ([5]; part of overall response rate): 3.7%
Partial response ([5]; part of overall response rate): 41.0%
Median duration of overall survival, subgroup with second-line oxaliplatin ([5]; patients who received second-line treatment with oxaliplatin): 25.1 months
Adverse event leading to hospitalization ([6]; in vivo): 44.9%
Any grade 3 or 4 adverse event ([6]; in vivo): 84.9** percent
Any thrombotic event ([6]; in vivo): 19.4%
Cases of grade 4 bleeding ([6]; in vivo): three
Deep thrombophletitis ([6]; in vivo): 8.9%
Gastrointestinal perforation ([6]; in vivo): 1.5%
Gastrointestinal perforation, number of patients ([6]; in vivo): six
Grade 3 or 4 bleeding ([6]; in vivo): 3.1%
Grade 3 or 4 leukopenia ([6]; in vivo): 37.0%
Hypertension, Any ([6]; in vivo): 22.4** percent
Incidence of arterial thrombotic events ([6]; in vivo): 3.3%
Proteinuria, Any ([6]; in vivo): 26.5%
Proteinuria, Grade 2 ([6]; in vivo): 3.1%
Proteinuria, Grade 3 ([6]; in vivo): 0.8%
Pulmonary embolus ([6]; in vivo): 3.6%
Adverse event leading to death ([6]; incidence): 2.6%
Death within 60 days ([6]; incidence): 3.0%

bevacizumab: recombinant humanized anti-VEGF monoclonal antibody generated according to Presta et al. (1997)
Increase in the median duration of survival attributable to bevacizumab ([5]; IFL plus bevacizumab vs IFL plus placebo): 4.7 months
Overall response rate [5]: 44.8%
Median duration of response [5]: 10.4 mo
Progression-free survival ([5]; intention-to-treat): 10.6 mo
Median survival ([5]; intention-to-treat): 20.3 mo
Effect on quality of life ([1]; FACT-C): no detrimental effect
Prolongation of median survival [1, 7]: 3.7 months
Prolongation of progression-free survival [1, 7]: 3.7 months
Prolongation of response duration [1, 7]: 2.4 months
